This is an account of results in patent publication US10799442B2, “Compounds useful in the treatment and/or care of the skin, hair, nails, and/or mucous membranes” (LUBRIZOL ADVANCED MATERIALS, INC., priority 2015, dated 2020).

One data set deals with KLF4. The data set can be described thus: Modulation of stem cell markers in HEKa, Real Time PCR Arrays (KLF4 mRNA). The class given is cell-based, Human. The conditions noted are these: 48 hours. As to the method: The candidate compound is evaluated for the modulation of several stem cell markers, those transcription factors regulated by miRNA145 (SOX2, OCT4, KLF4 and MYC). Gene expression profiles are analyzed by Real Time PCR Arrays using a 96-well panel for use with SYBR® Green (BioRad) to detect mRNA expression levels of stem cell markers plus three housekeeping genes, and five controls, in Human Epidermal Keratinocytes from adult (HEKa) (Cascade Biologics).
HEKa cells are seeded at 6.0×10^5 cells/well in 6-well plates and incubated in culture medium, Epilife with defined Growth Supplement (EDGS) (Cascade Biologics), for 24 hours at 37° C. in a water-saturated atmosphere of 95% air and 5% CO2. After 24 hours, the medium is removed and the cells are incubated with the synthetic peptide DD14024 at several concentrations in a culture medium. Cells are incubated with culture medium only and these provide the basal conditions. After 48 hours of treatment at 37° C. in a CO2 incubator, the cells are lysed directly in the wells, and RNA is purified following the protocol described on the RNeasy Mini kit (Qiagen) according to the manufacturer's protocol. After RNA elution, quantification and analysis of purity of RNA samples are performed with a biophotometer (Eppendorf). For each sample, 2 μg of high quality RNA is retrotranscribed with iScript Advanced (BioRad) in a final volume of 20 μl. The complete reaction mix is incubated in a thermal cycler (Eppendorf) at 42° C. for 30 minutes and the reaction is stopped at 85° C. for 5 minutes (?). Complementary DNA is amplified by qPCR in a real-time PCR thermocycler (BioRad) using SYBR Green Supermix (BioRad) in the 96-well panel for use with SYBR® Green (BioRad). SYBR Green binds to double-stranded DNA molecules and emits fluorescence which is quantified; the fluorescence intensity is proportional to the amount of the product in the PCR reaction. […] Fold change relative to the expression of the sample genes and reference genes is calculated using normalized expression (ΔΔ(Ct)) method using CFX Manager Software (BioRad). […]
On the technique in general: Quantitative PCR measures a nucleic acid by following its amplification.

The subject of the next data set is p63. Nature of the data set: Activation of the pool of epidermal stem cell in reconstructed human epidermal tissue (RHE), p63 immunohistochemistry. The data set is classed as cell-based. The conditions noted are these: p63 immunofluorescence, 10 μg/ml, 24 hours. As to the method: Therefore, an increase in the expression of p63 would mean a higher regenerative potential compared to basal conditions.
The SkinEthic human tissue models (RHE) are removed from the agarose-nutrient solution in the multiwell plate immediately after arrival and are placed in a 6-well plate in which each well has previously be filled with SkinEthic Growth Medium (EPISKIN). After overnight incubation at 37° C., 5% CO2, the medium is removed. Then, the tissue models are incubated with the candidate peptide at 10 μg/ml at 37° C. and 5% CO2 for 24 hours. The tissue models are embedded in Tissue Teck OCT compound (Aname™). […]
The expression of p63 is evaluated by immunohistochemistry with a specific primary antibody and a fluorescently labelled secondary antibody. […] At the end of the incubation, slides are washed with PBS and are incubated with Alexa Fluor® 488 Goat anti-rabbit IgG (H+L) secondary antibody (Invitrogen, green fluorescence emission dye) 1 hour at room temperature in a dark humidified chamber. […]
Microscopical observations are performed with a Zeiss fluorescence microscope and photographs of each condition are taken with the associated camera. From each fluorescence image of p63, values of the product of Mean Intensity and Area are quantified and normalized by control (basal condition, treated with SkinEthic Growth Medium). […]

The test system of a further data set is human miRNA145. The data set can be described thus: miRNA145 inhibition on Human Keratinocyte HaCaT cell line, direct quantification by luminescence. The class given is cell-based. The conditions noted are these: HaCaT cells, 0.3 mg/ml, 24 hours, normalized with Snord48; mean of 3 experiments for DD14024, one experiment for the others. As to the method:
The synthetic peptide candidates are evaluated for the inhibition of human miRNA145 expression level using a direct miRNA145 quantification assay based on luminescence detection in a Human Keratinocyte HaCaT cell line.
HaCat cells (Deutsches Krebsforschungszentrum) are seeded at 3.0×10^4 cells/well in 96-clear wells plates and incubated in a culture medium [(DMEM High Glucose with L-Glutamine (Lonza), supplemented with 10% Fetal Bovine Serum (Cultek)] for 24 hours at 37° C. in a water-saturated atmosphere of 95% air and 5% CO2. Then, the cells with the candidates added at 0.3 mg/ml in the culture medium are treated for 24 hours at 37° C., 95% air and 5% CO2. Cells with culture medium only are treated to the same conditions to provide basal conditions. Each cell culture condition is assayed at least in 6 biological replicates. At the end of the incubation period, the cells are lysed and the relative miRNA145 expression level is quantified by a specific assay kit (QuantiGene™ 2.0 miRNA Assay Kit) following manufacturer's instructions (Affymetrix). Briefly, to capture miRNA145, culture lysates are incubated overnight at 46±1° C. in 96-white well plates with the miRNA145 specific probe set (Capture extenders and Label extenders). As an endogenous expression control, the housekeeping Snord48 is quantified using a specific probe set. Next day, the signal amplification tree is built via sequential hybridization at 46±1° C. of three probes: PreAmplifier, Amplifier and Alkaline Phosphatase Label Probe. Then, the signal is detected by adding a chemiluminescent substrate and using a Microplate Luminometer Reader (Clariostar-BMG LabTech).
The miRNA145 expression level result is normalized with the Snord48 expression level for each cell culture condition and the relative decrease in the miRNA145 expression level is calculated respect to basal control (cells treated with culture medium only). The values represent the mean of 3 independent experiments for DD14024, and for the other candidates, represent the result of one experiment.

In the case of “Ac-QEMRMQ-OH [DD14024, Ac-Gln-Glu-Met-Arg-Met-Gln-OH]”, the “Fold induction respect to basal conditions” value in the data set with KLF4 (0.001 mg/ml) worked out at 1.66 ± 0.18; in the data set with KLF4 (0.005 mg/ml) it was 2.42 ± 0.50; with KLF4 (0.01 mg/ml), 1.71 ± 0.40; in the data set on p63 (1 experiment), 1.63 ± 0.16; in the data set on p63 (mean of four experiments) it was 2.11 ± 0.23. In addition, the “Relative level of miRNA145 respect to basal control (%)” value with human miRNA145 worked out at 85.06 ± 6.35%.
